Consider one molecule from paper PMC10202811 (Nature Medicine, 2023).

For data set [1], the system named is ALK-driven refractory or relapsed neuroblastoma. The experiment in a line: Soft tissue response by RECIST. The format is in vivo, human. An excerpt:
Patients underwent disease staging at baseline, after courses 2 and 4 and then every four courses thereafter. The primary endpoint for response analysis is the BOR, defined as the best response observed before progression or start of another therapy. […] Response was graded according to the NANT response criteria version 2.0 (ref. [26]), modified from the International Neuroblastoma Response Criteria (INRC)[48]. NANT response criteria use three components for assessment of overall response: soft tissue response assessed by anatomical imaging and avidity on MIBG or FDG-PET; bone response assessed by uptake in bone by MIBG or bone involvement on FDG-PET; and bone marrow response assessed by morphology on bilateral aspirates and biopsies. Each response component (soft tissue, bone and bone marrow) are graded as CR, PR, SD and PD. Overall response grading is defined as: CR, if a response of CR in all components that are involved at baseline; PR, if a response of PR or better in all involved components; MR, if a response of PR or better but with at least one involved component as SD and no PD in all involved components; SD, if a response of SD in all involved components; and PD, if a response of PD in at least one involved component. The overall response definitions are identical to overall responses (CR, PR, SD and PD) as defined by the INRC. Response assessment is initially performed by sites and reviewed against source documents by NANT operations. Additional blinded central review of all radiological or pathological data was conducted for patients with overall PR or better and, in addition, radiologic pathological data of all involved sites for patients with MR to assign the final BOR on this study. Response by MIBG was determined using the Curie criteria. RR was determined as the proportion of patients with BOR of CR and PR in each cohort. […]

Data set [2] in a line: Real-time neurobehavioral monitoring of CNS effects. It counts as in vivo, human. An excerpt:
The Adaptive Behavior Assessment System 3rd edition (ABAS-3; Harrison & Oakland, 2015) parent-report and self-report forms were used for the assessment of adaptive skills for individuals across all ages. Internal consistency has been reported to be 0.96 or greater for the composite adaptive behavior scale and between 0.86 and 0.99 for the subscales. Construct, convergent and discriminant validity have also been established for this measure.
The Behavior Assessment System for Children 3rd edition (BASC-3; Reynolds & Kamphaus, 2015) is a questionnaire assessing behavioral, emotional and adaptive functioning across settings. For purposes of this study, the Parent Rating Scales (PRS) were administered for patients ages 2–5 years (Preschool form, PRS-P), 6–11 years (Child form, PRS-C) and 12–17 years (Adolescent form, PRS-A). The Self-Report of Personality (SRP) College Form was administered for adult patients ages 18–25 years. The reliability of the BASC-3 is strong, with internal consistency averaging above 0.80 for all the age-specific versions of this questionnaire, and average test–retest reliability is 0.86.
The Behavior Rating Inventory of Executive Function (BRIEF; Gioia et al. 2000) is a questionnaire designed to assess behavioral manifestations of executive functioning and includes multiple versions. Parents of participants aged 2–5 years completed the 63-item preschool version (BRIEF-P). Parents of participants aged 6–17 years completed the BRIEF parent form, which consists of 86 individual items from which eight clinical scales, two indices and one composite score are derived. Patients who were ≥18 years of age completed a 75-item self-report adult version (BRIEF-A). Scores are standardized by age and gender, and high internal consistency (0.73–0.98) and test–retest reliability (0.76–0.90) were observed. Construct, content, convergent and discriminant validity have been established.
CogState Research Battery (version 7; Sands et al. 2017; Heitzer et al. 2018) is a flexible battery of computer-based tests developed to monitor domains of cognition typically affected by cancer treatment, such as attention, memory, executive function and processing speed. Three different versions were used, one for children 3–5 years of age, one for children 6–9 years of age and one for patients 10 years of age and older. Age-standardized z-scores were derived based on the CogState normative dataset finalized in September 2014 for adults and in February 2016 for pediatrics, with construct validity, criterion validity, cultural equivalence and limited practice effects established.
Only measures with established language translations were used. If measures were not available in a patient’s primary language, neurobehavioral toxicity assessment was based on the treating physician’s clinical determination using CTCAE version 4.0 grading criteria. All measures were individually administered by trained, qualified site personnel. Standardized scores were obtained for each instrument administered by comparing raw scores to normative samples provided by the test publishers. All evaluation results were reviewed, analyzed and interpreted centrally in real time by a pediatric neuropsychologist. Determination of clinically meaningful change in functioning (that is, significant decline) relative to baseline or previous screening exam was made at each retest interval. This was calculated using reliable change indices (RCIs) for individual tests or scales, which account for standard errors of measurement, to determine whether a statistically significant change in scores occurred between two timepoints. Meaningful change in performance was considered to occur when clinically significant decline (using 90% CI) was present in 50% of select administered measures. […]

The subject of data set [3] is neuroblastoma-derived xenografts harboring F1174L, F1245C or R1275Q ALK mutations. As to conditions: cited from earlier work.
Setting [4] is: A1 (< 18 yrs), DL 5 (115 mg/m^2).
[5] abbreviates: B2 (< 18yrs), DL 5 (115 mg/m^2).
Setting [6] is: patient with CNS DLT, A2 (≥ 18 yrs), 100 mg.
The mark [7] stands for this setting: patient with CNS DLT, B2 (< 18yrs), DL 5 (115 mg/m^2).
Where [8] appears, read: patients with CNS DLT, A2 (≥ 18 yrs), 150 mg.

Several values for one entry are separate records, joined by “and”; a condition that tells them apart may be missing. Identical values can stand only once. Entries after “also recorded” stand apart in the source; their conditions may differ.

Regarding `C[C@H]1Oc2cc(cnc2N)-c2c(nn(C)c2C#N)CN(C)C(=O)c2ccc(F)cc21` [Lorlatinib, (10R)-7-amino-12-fluoro-2,10,16-trimethyl-15-oxo-10,15,16,17-tetrahydro-2H-8,4-(metheno)pyrazolo[4,3-h][2,5,11]-benzoxadiazacyclotetradecine-3-carbonitrile], the “Soft tissue % change from baseline” value in data set [1] (Cohort A1, individual patient) is 1% and -3.77% and -4% and -7% and -17% and -21% and -29% and -36% and -41% and -50% and -63% and -70% and -100% and 200% and 121% and 100% and 61% and 20% and 6%; in data set [1] (Cohort A2, individual patient), 1% and -11% and -23% and -27% and -28% and -30% and -41% and -68%; in data set [1] (Cohort B2, individual patient) it was 1% and -9% and -12% and -45%. In addition, the “DLT Corresponding Neuropsych Symptoms, Cognitive” value is on record as “Stable” in data set [2] (setting [4]); “Speed/Efficiency Working Memory Immediate Recall” in data set [2] (A2 (≥ 18 yrs), 100 mg); “Stable” in data set [2] (A2 (≥ 18 yrs), 150 mg); “Speed/ Efficiency Working Memory” in data set [2] (setting [5]). Further, the “DLT Corresponding Neuropsych Symptoms, Psychosocial” value is listed as “Adaptive Skills Depression” in data set [2] (setting [4]); “Adaptive Skills Attention Working Memory” in data set [2] (A2 (≥ 18 yrs), 100 mg); “Anxiety Depression Emotional Lability Atypicality^c; also recorded: Adaptive Skills Depression Emotional Lability Working Memory” in data set [2] (A2 (≥ 18 yrs), 150 mg); “Adaptive Skills Anxiety” in data set [2] (setting [5]). Also, the “Pre-Cycle Neuropsych Symptoms, Psychosocial” value in data set [2] (patient with CNS DLT, A1 (< 18 yrs), DL 5 (115 mg/m^2)) is given as “Atypicality Adaptive Skills”; in data set [2] (setting [6]), “Adaptive Skills Attention”; in data set [2] (setting [7]) it was “Atypicality Anxiety”; in data set [2] (setting [8]), “Adaptive Skills Anxiety Emotional Lability Working Memory Atypicality; also recorded: Depression Emotional Lability Working Memory”. Besides, the “Pre-Cycle Neuropsych Symptoms, Cognitive” value in data set [2] (patient with CNS DLT, A1 (< 18 yrs), DL 5 (115 mg/m^2), decline from baseline) was “Stable”; in data set [2] (setting [6]), “Speed/ Efficiency Working Memory”; in data set [2] (setting [7]) it was “Speed/ Efficiency”; in data set [2] (setting [8]) it was “Stable; also recorded: Visual Memory”. In addition, in data set [3] (ALK-driven neuroblastoma pre-clinical models in vivo), the “anti-tumor doses lower than crizotinib” value was 10–30 fold. The “effect on xenograft tumors” value in data set [3] (crizotinib-resistant and sensitive xenografts) was “complete tumor regression”.
